Source: patent US8957108B2, “Use of 5,6-dimethylxanthenone-4-acetic acid as an antiviral agent” (University of Maryland, Baltimore, priority 2006, dated 2015)

Tests used:
[1] = system: vesicular stomatitis virus (VSV); assay type: cell-based, strain Indiana; conditions: RAW 264.7 macrophages pretreated 6 h with 100 μg/ml; highest exposure MOI=10.0
IRF-3 = assay: Native-PAGE and Western blotting for IRF-3 dimers; assay type: cell-based, mouse; conditions: peritoneal macrophages, DMXAA- vs. LPS-stimulated
Method: Rabbit anti-mouse IκBα phospho-specific Ab (pAb) was purchased from Santa Cruz Biotechnology, Inc. (Santa Cruz, Calif.). Rabbit anti-mouse MAPK pAb and rabbit anti-human phospho-IRF-3 pAb antibodies were purchased from Cell Signaling (Danvers, Mass.). Rabbit anti-mouse IRF-3 pAb was purchased from Zymed (South San Francisco, Calif.). Native-PAGE for the detection of IRF-3 dimers was carried out as described in Iwamura, T. et al. (2001) “Induction Of IRF-3/-7 Kinase And NF-kappaB in Response To Double-Stranded RNA And Virus Infection: Common And Unique Pathways,” Genes and Cells 6:375-388. Briefly, thioglycollate-elicited peritoneal macrophages were lysed following stimulation with either LPS or DMXAA as indicated. […] Membranes were probed with a 1:250 dilution of rabbit anti-mouse IRF-3 for 1 h at room temperature. Goat anti-rabbit IgG-HRP (Cell Signaling Technologies, Danvers, Mass.) at a 1:2000 dilution was used as the secondary Ab. Blots were developed with ECL Plus (Amersham Biosciences, Piscataway, N.J.).

macrophages = assay: Expression of LPS-inducible early genes and IFN production in macrophages; assay type: cell-based, mouse
Excerpt: Because all of the cellular activities listed above can be performed by another ubiquitous yet structurally diverse compound, the lipopolysaccharide (LPS) of Gram-negative bacteria, the ability of DMXAA to modulate the expression of a subset of well-characterized LPS-inducible early genes in macrophages was studied in an effort to further elucidate the mechanism of DMXAA action. DMXAA's ability to induce IFN production by macrophages and to modulate the expression of the genes that encode transcription factors IRF-1, IRF-2, and ICSBP members of the interferon regulatory factor (IRF) gene family was also studied. […] These genes are: TNF-α, IL-1β, IP-10, Type 2 Tumor Necrosis Factor Receptor (TNFR-2), D3, and D8.

murine colon tumors = conditions: mouse; cited from earlier work

Compound: Cc1ccc2c(=O)c3cccc(CC(=O)O)c3oc2c1C [DMXAA, 5,6-dimethylxanthenone-4-acetic acid]
- VSV infection and CPE [1]: completely prevents VSV infection and CPE
- activated IRF-3 dimers (IRF-3): much more abundant and longer-lived
- TNF-α gene expression (macrophages): only low induction
- expression of the genes encoding IP-10, D8, and D3 (macrophages): up-regulated to levels similar to those observed upon LPS induction
- induction of TNFR-2 and IL-1β genes (macrophages): insignificant induction
- induction of Type 1 Interferons (IFNs) (macrophages; mouse macrophages): extremely potent inducer
- potency in vivo against murine colon tumors relative to FAA (murine colon tumors): 12 fold
